Laboratory results reported in US10208074B2, “Pyrazole compounds and method for making and using the compounds” (Rigel Pharmaceuticals, Inc., priority 2015, dated 2019).
Counter-ions that a name gives are not always drawn.

Assays:
IL-23p19 = test: LPS induced IL23p19 in THP-1 cells (with IFNγ primed) assay; type: cell-based, Human; details: Homo sapiens, THP-1, 18 h, THP-1 cells, IFNγ primed, LPS 1 ug/mL, 18 hours, 10 pt; read-out: IL23-p19 ELISA, THP1-IFNy, LPS, 10 pt EC50
How it was run: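 Readout is secreted IL-23p19, quantified by chemiluminescent sandwich ELISA after 18 h LPS (1 ug/mL) stimulation of THP-1 cells that had been IFNγ-primed (50 ng/mL, ~18 h) and given compound 1 h beforehand at 37 °C. EC50 derived by curve fit; cytotoxicity tracked with Cell Titer Glo.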

IL-23 (p19/p40) = test: IL23-p19 ELISA, Dendritic, LPS (compound screening using DC cells); type: cell-based, Human; details: Homo sapiens, 18 h, PBMC-derived DC cells, IFNγ primed, LPS 1 μg/ml, 18 hours, 10 pt; read-out: IL23-p19 ELISA, Dendritic, LPS, 10 pt, EC50
Description: Compound Screening Using DC Cells
Human PBMC cells (400 million) obtained from the vendor were transferred into a T-175 flask containing 15 ml RPMI media (10% FBS) and incubate for 2 hours at 37° C. After 2 hours, the media including floating cells was aspirated out carefully and 12 ml of fresh RPMI media (10% FBS) containing GMCSF (100 ng/ml) and IL4 (20 ng/ml) was added, and the flask was kept in a 37° C. incubator for 7 days.
After 3 days, fresh GMCSF (100 ng/ml) and IL4 (20 ng/ml) were added to the flask and the incubation continued. After 7 days, the fully differentiated cells were harvested by spinning down (1200 rpm/5 min) and aspirating the media. The cells were suspended in fresh RPMI media (10% FBS) containing 50 ng/ml IFNγ (1000 U/ml) and then plated (50K/well in 100 μl) onto a white clear bottom 96 well plate and left in a 37° C. incubator for 24 hours.
After 24 hours incubation, 100 μl of RPMI media was added containing 2× concentrated test compound per well to the above cell-culture media (final concentration becomes 1×) and the plates were pre-incubated for 1 hour at 37° C. before stimulating with LPS.
After 1 hour compound pre-incubation, 10 piper well of 20× concentrated LPS solution in RPMI media was added to give a final concentration of 1 μg/ml. The mixture was shaken and incubated the plates at 37° C. for an additional 18 hours.
155 μl of the supernatant was harvested from each well carefully (without the tip touching the bottom of the well) and to the remaining 50 μl/well of the cell culture plate was added 50 μl of Cell Titer Glo reagent. The mixture was incubated for 1-2 minutes on a shaker and the plate was read for luminescence intensity to determine the compound cytotoxicity. The cell culture supernatant collected above was used to carry out IL23 ELISA (65 μl -Supernatant) and IL10 ELISA (90 μl—Supernatant) as described below.
Human IL-23 (p19/p40) ELISA Protocol (e-Biosciences)
To 10.5 ml PBS add 50 μl of anti-IL23 (p19) was added capture antibody (2.5 μg/ml). The mixture was mixed well and 100 μl of the coating solution was added to each well of the 96 well white plates from Pierce. The wells were covered and incubated overnight at 4° C.
The anti-IL23 (p19)-antibody-coated plates were washed 2× using TBST (use plate washer) and blocked using 200 μl of 0.5% Casein for 1.5-2 hours at room temperature with shaking.
The plates were washed 2× using TBST and the supernatant was transferred (65 μl/well) to the above pre-blocked/IL23(p19)-antibody-coated 96 well plate, and incubated at room temperature for 1.5 hours with shaking.
The plates were washed 4× using TBST (plate washer) and 100 μl/well detection antibody solution prepared from 2 μl of biotin labeled anti-IL-12 (p40/p70) antibody in 11 ml 1% BSA/PBS solution (1-5000 dilution) was added. The plates were incubated for 1 hour with shaking at Room temperature.
Again, the plates were washed 4× with TBST and 100 μl of HRP labeled Streptavidin (R&D Systems) solution (10 μl/10 ml 1% BSA solution) was added, and the plates were incubated at room temperature for another 45 minutes with shaking.
After 45 minutes, the plates were washed with TBST 4× and 100 ul/well Super Signal ELISA Pico Chemiluminescent Substrate from Pierce (3.5 ml A+3.5 ml B+3.5 ml MQ water) was added. The plates were shaken for 1-2 minutes then read on a plate reader.

EC50 (IL-23p19)	EC50 (IL-23 (p19/p40))	Structure (SMILES)
204 nM	1550 nM	COCCn1cc(NC(=O)c2ccc(-c3cnn(C(=O)OC(C)(C)COCc4ccc(OC)cc4)c3)o2)c(-c2ccccn2)n1 [Compound I-22, 1-((4-methoxybenzyl)oxy)-2-methylpropan-2-yl 4-(5-((1-(2-methoxyethyl)-3-(pyridin-2-yl)-1H-pyrazol-4-yl)carbamoyl)furan-2-yl)-1H-pyrazole-1-carboxylate]
21.7 nM	37.2 nM	O=C(Nc1cn(C2CCOCC2)nc1-c1ccccn1)c1ccc(-c2cn[nH]c2)o1 [Compound I-23, 5-(1H-pyrazol-4-yl)-N-(3-(pyridin-2-yl)-1-(tetrahydro-2H-pyran-4-yl)-1H-pyrazol-4-yl)furan-2-carboxamide]
57.1 nM	44.1 nM	O=C(Nc1cn(C2COC2)nc1-c1ccccn1)c1ccc(-c2cn[nH]c2)o1 [Compound I-25, N-(1-(oxetan-3-yl)-3-(pyridin-2-yl)-1H-pyrazol-4-yl)-5-(1H-pyrazol-4-yl)furan-2-carboxamide]
1320 nM	276 nM	Cn1cc(-c2ccc(C(=O)Nc3cn(C4COC4)nc3-c3ccccn3)o2)cn1 [Compound I-26, 5-(1-methyl-1H-pyrazol-4-yl)-N-(1-(oxetan-3-yl)-3-(pyridin-2-yl)-1H-pyrazol-4-yl)furan-2-carboxamide]
159 nM	15.8 nM	CCO[C@H]1C[C@H](n2cc(NC(=O)c3ccc(-c4cn[nH]c4)o3)c(-c3ccccn3)n2)C1 [Compound I-27, N-(1-((1,3-trans)-3-ethoxycyclobutyl)-3-(pyridin-2-yl)-1H-pyrazol-4-yl)-5-(1H-pyrazol-4-yl)furan-2-carboxamide]
49.7 nM	21.8 nM	CCO[C@H]1C[C@@H](n2cc(NC(=O)c3ccc(-c4cn[nH]c4)o3)c(-c3ccccn3)n2)C1 [Compound I-28, N-(1-((1,3-cis)-3-ethoxycyclobutyl)-3-(pyridin-2-yl)-1H-pyrazol-4-yl)-5-(1H-pyrazol-4-yl)furan-2-carboxamide]
206 nM	97.2 nM	CCO[C@H]1C[C@@H](n2cc(NC(=O)c3ccc(-c4c[nH]nc4C)o3)c(-c3ccccn3)n2)C1 [Compound I-29, N-(1-((1,3-cis)-3-ethoxycyclobutyl)-3-(pyridin-2-yl)-1H-pyrazol-4-yl)-5-(3-methyl-1H-pyrazol-4-yl)furan-2-carboxamide]
38 nM	58.9 nM	Cc1n[nH]cc1-c1ccc(C(=O)Nc2cn(C3COC3)nc2-c2ccccn2)o1 [Compound I-30, 5-(3-methyl-1H-pyrazol-4-yl)-N-(1-(oxetan-3-yl)-3-(pyridin-2-yl)-1H-pyrazol-4-yl)furan-2-carboxamide]
6290 nM	1250 nM	CCO[C@H]1C[C@@H](n2cc(NC(=O)c3ccc(-c4cnn(C)c4)o3)c(-c3ccccn3)n2)C1 [Compound I-31, N-(1-((1,3-cis)-3-ethoxycyclobutyl)-3-(pyridin-2-yl)-1H-pyrazol-4-yl)-5-(1-methyl-1H-pyrazol-4-yl)furan-2-carboxamide]
28.8 nM	83 nM	O=C(Nc1cn([C@H]2C[C@@H](O)C2)nc1-c1ccccn1)c1ccc(-c2cn[nH]c2)o1 [Compound I-32, N-(1-((1,3-cis)-3-hydroxycyclobutyl)-3-(pyridin-2-yl)-1H-pyrazol-4-yl)-5-(1H-pyrazol-4-yl)furan-2-carboxamide]
13.8 nM	14.4 nM	CN(C)[C@H]1C[C@@H](n2cc(NC(=O)c3ccc(-c4cn[nH]c4)o3)c(-c3ccccn3)n2)C1 [Compound I-34, N-(1-((1s,3s)-3-(dimethylamino)cyclobutyl)-3-(pyridin-2-yl)-1H-pyrazol-4-yl)-5-(1H-pyrazol-4-yl)furan-2-carboxamide formate]
63.3 nM	520 nM	CCO[C@H]1C[C@@H](n2cc(NC(=O)c3ccc(-c4cnn(COP(=O)(O)O)c4)o3)c(-c3ccccn3)n2)C1 [Compound I-35, (4-(5-((1-((1,3-cis)-3-ethoxycyclobutyl)-3-(pyridin-2-yl)-1H-pyrazol-4-yl)carbamoyl)furan-2-yl)-1H-pyrazol-1-yl)methyl phosphate bis-sodium salt]
